Measured values reported in paper PMC9666555, “Genuine selective caspase-2 inhibition with new irreversible small peptidomimetics” (Cell Death & Disease, 2022).
Where “and” joins values, the source holds several entries; their conditions need not be identical. Equal entries are not always repeated. Where two headings read alike, the source gives them in different places. Residues, ends and D or L forms follow the SMILES beside them. *: point of attachment. X1 = O=C(O)CC(N*)C(=O)COc1c(F)cccc1F; Quinaldoyl = O=C(c1ccc2ccccc2n1)*; Cbz = O=C(OCc1ccccc1)*; CH2F = FC*

Assays:
[1] = biological target: T1, human active recombinant caspase-2 (Homo sapiens, UniProt P42575); assay: In vitro caspase activity and inhibition assay (IC50), Caspase-2; assay type: biochemical
T1 sequence (P42575 170-325 limits assumed): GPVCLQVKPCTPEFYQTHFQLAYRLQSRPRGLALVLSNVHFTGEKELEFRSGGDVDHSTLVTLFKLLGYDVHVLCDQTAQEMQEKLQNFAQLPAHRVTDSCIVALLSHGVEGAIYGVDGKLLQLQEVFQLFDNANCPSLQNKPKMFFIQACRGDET
T1 sequence (P42575 348-452 limits assumed): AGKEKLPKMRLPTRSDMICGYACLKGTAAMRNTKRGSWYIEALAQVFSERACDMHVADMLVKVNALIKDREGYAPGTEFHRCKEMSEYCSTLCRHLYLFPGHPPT
Protocol: Stock solutions were stored at −80 °C.

[2] = biological target: T2, human active recombinant Caspase-3 (Homo sapiens, UniProt P42574); assay: In vitro caspase activity and inhibition assay (IC50), Caspase-3; assay type: biochemical
T2 sequence (P42574 29-175 limits assumed): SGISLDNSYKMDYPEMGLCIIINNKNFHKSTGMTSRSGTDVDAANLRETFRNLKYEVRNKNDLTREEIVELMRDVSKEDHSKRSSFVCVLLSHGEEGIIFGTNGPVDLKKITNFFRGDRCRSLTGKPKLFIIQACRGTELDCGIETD
T2 sequence (P42574 176-277 limits assumed): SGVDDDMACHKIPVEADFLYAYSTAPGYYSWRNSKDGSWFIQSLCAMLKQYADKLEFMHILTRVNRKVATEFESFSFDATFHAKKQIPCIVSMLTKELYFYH
Protocol: The human active recombinant Caspase-3 (#707-C3) was purchased from R&D Systems (Minneapolis, USA). […] Stock solutions were stored at −80 °C. […] Caspase inhibitors were solubilized in DMSO at 10 mM and stored at −80 °C.
Initial velocity (V0) was determined from the linear portion of the progress curve. The composition of the activity buffer was: 20 mM HEPES, pH 7.4; 0.1% CHAPS, 5 mM DTT, 2 mM EDTA; 800 mM sodium succinate for Caspase-2 (0.2 nM) with 25 µM of Ac-VDVAD-7-amino-3-methylcoumarin (AMC) and 20 mM HEPES, pH 7.4; 0.1% CHAPS, 5 mM DTT, 2 mM EDTA; supplemented with 1 mg/mL of stabilizing agent bovine serum albumin (BSA) for Caspase-3 (0.1 nM) with 10 μM of Ac-DEVD-AMC. Compounds (0.001–100 µM) were tested in duplicate for each inhibitor concentration to detect their inhibitory potential. Enzymes and compounds were incubated for 30 min before initiating enzymatic reaction by adding substrate. Initial rates determined in control experiments (V0) were considered as 100% of the caspase activity; initial rates that were below 100% in the presence of tested compound (Vi) were considered as inhibition. The inhibitory activity of compounds was expressed as IC50 (Inhibitor concentration giving 50% inhibition). The values of IC50 were calculated by fitting the experimental data using Mars data Analysis 2.0 and KaleidaGraph software.1 %Inhibition=1001−Vi/V0=100I0/IC50+I0

[3] = biological target: T3, recombinant human Casp2 (Homo sapiens, UniProt P42575); assay: Enzyme mechanistic studies (Ki, k3, k3/KI), Caspase-2; assay type: biochemical; settings: for Ki ratio (Casp3/Casp2): reversible inhibitors
T3 sequence (P42575 170-325 limits assumed): T1 sequence (P42575 170-325 limits assumed)
T3 sequence (P42575 348-452 limits assumed): T1 sequence (P42575 348-452 limits assumed)
Protocol: (§1) For reversible inhibitors, the mechanisms of inhibition were determined by varying substrate and inhibitor concentrations and using Lineweaver−Burk representations to determine the inhibition constants Ki of competitive inhibitors (Ki = [E][I]/[EI]). For suicide inhibitors, inactivation can be represented by the minimum kinetic scheme (Eq. 2), where E and I are the free forms of enzyme and inhibitor, E * I a kinetic chimera of the Michaelis complex and E − I the covalent complex (inactivated enzyme).2 E+I⇄KIE*I→k3E−I
(§2) KI and k3 are the kinetic constants characterizing the inactivation process and the k3/KI ratio is an index of the inhibitory potency. The first-order rate constant, k3, and the apparent dissociation constant, KI, were determined for Caspase-2 and -3 using the progress curve method. Briefly, the enzyme activities were measured continuously for 120 min. To determine the kinetic parameters, progress curves were obtained at several inhibition concentrations using fixed substrate concentration. The product released for each inhibitor concentration was plotted versus the time following Eq. 3 where the constant π depended on [I]’, a modified inhibitor concentration due to substrate competition, according to Eq. 4. [I]’ is defined by Eq. 5, where KM was Michaelis constant for the enzymatic hydrolysis of the appropriate fluorogenic substrate. The ratio k3/KI was obtained by fitting the experimental data to the equations (F.U., fluorescence unit):3 F.U.=∫0tvidt+F.U0−vo×e^−π×t/π+F.U.0 4 π=k3×[I]^′/KI+[I]^′ 5 [I]^′=[I]/1+S/KM
Linear and nonlinear regression fits of the experimental data to the equations were performed with KaleidaGraph software. The experimental conditions were [Caspase-2]0 = 0.2 nM, [Ac-VDVAD-AMC]0 = 25 µM and [Caspase-3]0 = 0.1 nM, [Ac-DEVD-AMC]0 = 10 µM; [I]0 = 0–100 µM.

[4] = biological target: T4, recombinant human Casp3 (Homo sapiens, UniProt P42574); assay: Enzyme mechanistic studies (Ki, k3, k3/KI), Caspase-3; assay type: biochemical
T4 sequence (P42574 29-175 limits assumed): T2 sequence (P42574 29-175 limits assumed)
T4 sequence (P42574 176-277 limits assumed): T2 sequence (P42574 176-277 limits assumed)
Protocol: as §1, §2
Linear and nonlinear regression fits of the experimental data to the equations were performed with KaleidaGraph software.

[5] = system: HeLa cells; assay: Vincristine-induced HeLa cell death (propidium iodide, flow cytometry); assay type: cell-based, human; settings: 1 h pretreatment, 20 nM vincristine 44 h; for effect against vincristine-induced cell death: indicated doses; for inhibition of vincristine-induced cell death: inhibitor 30 µM
Protocol: HeLa cells (obtained from ATCC) were cultured in Dulbecco’s Modified Eagle Medium (DMEM, High Glucose, GlutaMAX™, Pyruvate) supplemented with antibiotics and 10% fetal calf serum (FCS) (Gibco, Life Technologies) and maintained in T75 Flasks at 1 × 10^6 cells per flask. Twenty-four hours before treatments, HeLa cells were transferred to 6-well plates (8 × 10^4 cells/well). The lymphoblastoid cell line Molt4cl8 was a gift from Dr. Bernard Krust (Inserm, University Paris 5) and was cultured in RPMI 1640 Glutamax medium supplemented with Hepes, antibiotics, and 10% FCS. HEK293 cells were obtained from ATCC (CRL-1573) and cultured in DMEM with Glutamax and 25 mM glucose (Life Technologies) supplemented with 10% FCS and antibiotics. For cell death induction, the following agents were added to cell cultures: Vincristine (Sigma) and Panobistat (LBH589; Selleck). Cell death was analyzed using fluorescence microscopy (Axio-observer Z1, Zeiss; equipped with CCD camera CoolsnapHQ2, Ropert Scientific) and cytofluorometry (MACSQuant® VYB; Miltenyi Biotec, Bergisch Gladbach, Germany) after labeling with propidium iodide (1 µg/mL; 10 min; 37 °C; Life Technologies) and Hoechst 33342 (1 µg/mL; 5 min; RT; Sigma).
Fig. 2 q33 and h33 are protective against the cytocidal effect of Vincristine. a Vincristine induces HeLa cell death. Cells were incubated for 44 h at 37 °C with 20 nM Vincristine (VCR), then incubated with propidium iodide at 2 μg/mL for 10 min and analyzed by flow cytometry to quantify plasma membrane permeabilization. Histograms show fluorescence intensity detected by flow cytometry (one representative experiment) in the presence (VCR) or Absence (Co.) of Vincristine. % of propidium iodide-positive cells are indicated for both conditions. b Dose–response of Vincristine-induced cell death. HeLa cells were incubated and treated as in (a) with the indicated doses of Vincristine (VCR) and analyzed by flow cytometry. […] Representative fluorescence microscopy micrographs of cells treated for 44 h with 20 nM vincristine (VCR) or not (Co.) and stained with Hoechst 33342. Vincristine induces progressive nuclear changes with first condensed nuclei (arrows) and then apoptotic bodies (dashed arrow). d Broad-spectrum irreversible caspase inhibitors prevent vincristine-induced cell death. HeLa cells were pretreated for 1 hr with the indicated broad-spectrum irreversible caspases inhibitors (z-VAD(OMe)-fmk at 30 μM, Q-VD-OPh 30 μM, Emricasan 10 μM, or the negative control Q-VE-OPh 30 μM), then treated with vincristine as in panel (a), and analyzed by flow cytometry. Histograms show the mean ± SD of 3 independent experiments (***p value < 0.001). e Effect of the reversible Caspase-2 inhibitors q33 and h33 against vincristine-induced cell death. HeLa cells were pretreated for 1 h with the indicated doses of q33 or h33, then treated with vincristine as in panel a, and analyzed by flow cytometry. Histograms show the mean ± SD of three independent experiments (*p value < 0.1). TEXT PRINTED IN THE PICTURE: (a) VCR: 39,5 % DOUBTS OF THE COPYIST ABOUT THIS PICTURE: Panel a: the picture prints no measure beside "39,5 %" and "4.1%". I assigned 39,5 % to VCR only because it stands by the grey VCR peak. / Panel a: "4.1%" seems to belong to the untreated control (Co.). That is not a substance, so it is left out.
Fig. 5 LJ2 inhibits cell death induced by microtubule destabilization and hydroxamic acid-based deacetylase (HDAC) inhibition. a Effect of the irreversible Caspase-2 inhibitors LJ2 against vincristine-induced cell death. HeLa cells were pretreated for 1 h with the indicated doses of LJ2, Q-VD-OPh, or Q-LETD-OPh, then treated with vincristine (VCR) as in Fig. 2, then incubated with propidium iodide at 2 μg/mL for 10 min and analyzed by flow cytometry. Histogram data are mean ± SD (n = 3, *p value < 0.01). b Effect of Caspases-inhibitors against Panobistat (LBH589)-induced cell death. […]

[6] = system: Casp2-S1P-SREBP2 activation pathway in HEK 293 cells; assay: Casp2-dependent S1P cleavage and SREBP2 activation in transfected HEK 293 cells (WB); settings: 10 µM, 16 h
Protocol: To test SREBP processing, HEK 293 (ATCC® CRL-1573) cells were plated at a density of 0.5 × 10^5 per well (6-well plates). The next day, 1 μg of each cDNAs were transfected using lipofectamine 3000 (Thermo Fisher Scientific, MA) according to the manufacturer’s instruction. cDNAs used were empty vector (EV), Casp2-HA, PIDD-Flag, RAIDD-His, Myc-S1P, and V5-SREBP2. After 4 h, cells were incubated in DMEM/F12 medium supplemented with indicated Casp2 inhibitors (10 μM) for 16 h. Whole-cell lysates were prepared in lysate buffer (150 mM Tris-HCl, pH 7.4, 10% sodium-deoxycholate, 100 mM NaCl, 100 mM EDTA, 100 mM PMSF, 200 mM NaF, 100 mM Na3VO4, and a mixture of protease inhibitors). […] Equal quantities of proteins were subjected to immunoblot (WB) analysis with anti-Flag (#F7425 Sigma-Aldrich), anti-HA (#1867431, Roche), anti-Casp2 (#ALX-804-356, 11B4, Enzo Life Sciences), anti-V5 monoclonal antibody (#13202, Cell Signaling Technology), anti-Casp3 (#9661, #9662, #9664, Cell Signaling Technologies), and anti-HSP90 (#sc-101494, Santa Cruz Technologies).
HEK 293 cells were transfected with indicated plasmids in order to overexpress SREBP2, S1P, RAIDD, PIDD1, and Casp-2. […] HEK 293 cells were transfected with the indicated plasmids. […] Then, whole cell extracts (WCL) were prepared and subjected to WB analysis to detect Casp2 (through HA tag), RAIDD (through 6HIS tag), and PIDD1, PIDD1-C, PIDD1-CC (through Flag tag).

[7] = system: Swiss mice hippocampal neurons; assay: Aβ oligomer-induced dendritic spine loss in hippocampal primary cultures; assay type: cell-based, mouse; settings: 100 nM, 6 h of exposure
Protocol: For the monoculture model (MBBT4 devices), 20 × 10^3 hippocampal neurons were seeded in each chamber. For the compartmentalized coculture model (neuronal diode in MBBT5 devices), 40 × 10^3 cortical cells and 15 × 10^3 hippocampal cells were seeded in each input chamber and output chamber, respectively. The culture medium was renewed every 5 days. Microfluidic chips were placed in Petri dishes containing 0.1% EDTA (Sigma) and incubated at 37 °C in a 5% CO2 atmosphere. In the neuronal diodes, cortical axons entered the microchannels and reached the hippocampi chamber in around 4–5 days. In both the monoculture and coculture systems, cells were cultured for 3 weeks to allow high dendrites and synapse density and intense electrical firing.
Cells were treated with caspase inhibitors and/or Aβ1–42 at 20 days in vitro. For the hippocampal monocultures, the culture medium was removed and replaced by fresh medium optionally containing 10 nM Aβ1–42 oligomers or monomers, with or without caspase inhibitors. After 6 h, cells were fixed, permeabilized, and subjected to immunolabelling. For cortico-hippocampal compartmentalized cocultures, the medium of the input chamber (cortical) was replaced by fresh medium optionally containing 100 nM Aβ1–42 oligomers or monomers, whereas the medium of the output (hippocampal) chamber was replaced by fresh medium optionally containing, or not, caspases inhibitors. […]
Immunostaining was performed directly in microfluidic chambers as described [38]. […] Images were analyzed using ImageJ software (NIH, Bethesda, MD, USA).
Synaptic disconnection was assessed as described [39] with slight modifications. Briefly, in hippocampal monocultures, synaptic disconnection was assessed through fluorescence microscopy by counting phalloidin clusters affixed to MAP2 and Bassoon. In cortico-hippocampal compartmentalized cocultures, synaptic disconnection was assessed by counting α-Synuclein presynaptic clusters affixed to MAP2-positive hippocampal dendrites. […] The images were similarly processed with ImageJ software before being used for quantification: the brightness/contrast of all control images were optimized manually to eliminate the background and to maximize the signal. The means of the minimum and maximum intensities were then calculated in the control condition and these settings were applied to all images. The brightness/contrast of all images was optimized manually to eliminate the background and maximize the intensity of the signal. α-synuclein/ MAP2 and Phalloidin/MAP2/Bassoon merges were then used for quantification. The number of spines was determined by counting individual clusters along ten dendritic regions (100 µm length each) in three independent experiments for every epitope. Only synapses detected on or near the neurites were included for analysis.

[8] = reversible competitive inhibitors, Lineweaver-Burk, read-out: Enzyme assays Casp2 Ki
[9] = reversible competitive inhibitors, Lineweaver-Burk, read-out: Enzyme assays Casp3 Ki (converted)
[10] = 30 min preincubation, 0.2 nM Caspase-2, 25 µM Ac-VDVAD-AMC, read-out: Enzyme assays Casp2 IC50
[11] = 30 min preincubation, 0.1 nM Caspase-3, 10 µM Ac-DEVD-AMC, read-out: Enzyme assays Casp3 IC50 (converted)
[12] = irreversible inhibitors, progress curve method

CC(=O)N[C@H](C(=O)N[C@@H](CC(=O)O)C(=O)N[C@H](C(=O)N1CC[C@@H](OC(C)C)[C@@H]1C(=O)N[C@H]1CC(=O)OC1O)C(C)C)C(C)C (stereo partly shown) [c33, reference compound]
IC50 [1]: 271 nM | IC50 [2]: 6720 nM | Ki [3, 8]: 122 nM | Ki [4, 9]: 2440 nM

CC(=O)N[C@H](C(=O)N[C@@H](CC(=O)O)C(=O)N[C@H](C(=O)N1CC[C@H](CC(C)(C)C)[C@@H]1C(=O)N[C@H]1CC(=O)OC1O)C(C)C)C(C)C (stereo partly shown) [h33, reference compound]
IC50 [1, 10]: 11 nM | IC50 [2, 11]: 4570 nM | Ki [3, 8]: 10.9 nM | Ki ratio (Casp3/Casp2) [3]: 597 | Ki [4, 9]: 6510 nM | effect against vincristine-induced cell death [5]: showed cytoprotective effect

COC(=O)C[C@H](NC(=O)[C@H](C)NC(=O)[C@@H](NC(=O)OCc1ccccc1)C(C)C)C(=O)CF [z-VAD(Ome)-fmk] (Cbz-Val-Ala-Asp(OMe)-CH2F)
inhibition of vincristine-induced cell death [5]: more than 80%

Q-LETD-OPh
effect against vincristine-induced cell death [5]: no effect

CC(C)[C@H](NC(=O)c1ccc2ccccc2n1)C(=O)N[C@@H](CC(=O)O)C(=O)N[C@H](C(=O)N[C@@H](C)C(=O)NC(CC(=O)O)C(=O)COc1c(F)cccc1F)C(C)C (stereo partly shown) [Δ2Me-TRP601, Quinolin-2-carbonyl-VDVAD-CH2-O(2,6F2)Ph, reference compound] (Quinaldoyl-VDVA-X1)
IC50 [2]: 0.31 ± 0.01 nM | Casp2 k3 [3, 12]: 8,08 ms^−1 | Casp2 k3/KI [3, 12]: ~ 1,586,020 M^−1 s^−1 and 1 586 020 M^−1 s^−1 | KI (inactivation) [3, 12]: 5.49 nM | Casp3 k3 [4, 12]: 1,85 ms^−1 | Casp3 k3/KI [4, 12]: 1 613 405 M^−1 s^−1 | KI (inactivation) [4, 12]: 1.17 nM | S1P cleavage [6]: abolished | SREBP2 activation [6]: abolished | impact on RAIDD, PIDD1, and Casp2 expression [6]: no significant impact

Aβ1–42 oligomers: oligomers of human β-amyloid1-42 peptide [reference compound]
decrease in spine density [7]: 50%

CC(C)[C@H](NC(=O)c1ccc2ccccc2n1)C(=O)N[C@@H](CC(=O)O)C(=O)N[C@H](C(=O)N1CC[C@H](CC(C)(C)C)[C@H]1C(=O)NC(CC(=O)O)C(=O)COc1c(F)cccc1F)C(C)C (stereo partly shown) [LJ3b]
k3/Ki ratio against Casp2, times lower than the one of the a isomer (LJ2a or LJ3a) [3]: more than 2000 times | Casp2 k3/KI [3, 12]: 823 M⁻¹ s⁻¹ | Ki ([3]; irreversible inhibitors, progress curve method, read-out: Casp2 KI): 8540 ± 300 nM | Casp3 k3 [4, 12]: 0.8 ± 6 × 10^−5 ms^−1 | Casp3 k3/KI [4, 12]: 9 M⁻¹ s⁻¹ | Ki ([4]; irreversible inhibitors, progress curve method, read-out: Casp3 KI): 84200 nM

CC(=O)N[C@H](C(=O)N[C@@H](CC(=O)O)C(=O)N[C@H](C(=O)N1CCc2ccc(C)cc2[C@@H]1C(=O)N[C@H]1CC(=O)OC1O)C(C)C)C(C)C (stereo partly shown) [q33, reference compound]
IC50 [1, 10]: 15 nM | IC50 [2, 11]: 2540 nM | Ki [3, 8]: 24 nM | Ki ratio (Casp3/Casp2) [3]: 94.5 | Ki [4, 9]: 2370 nM | effect against vincristine-induced cell death [5]: showed cytoprotective effect

CC(=O)NC(C(=O)NC(CC(=O)O)C(=O)NC(C(=O)N1CCC(c2ccccc2)C1C(=O)NC1CC(=O)OC1O)C(C)C)C(C)C (stereo not shown) [k33, reference compound]
IC50 [1]: 178 nM | IC50 [2]: 1960 nM | Ki [3, 8]: 90.5 nM | Ki [4, 9]: 2770 nM

CC(C)C(NC(=O)c1ccc2ccccc2n1)C(=O)NC(CCC(=O)O)C(=O)COc1c(F)cccc1F (stereo not shown) [Q-VE-OPh]
inhibition of vincristine-induced cell death [5]: not
